Experimental data taken from ChEMBL document CHEMBL1201862, “PubChem BioAssay data set” (2004).
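Each compound was tested at five concentrations against cells in 96-well plates for 48 hours. GI50 marks 50% less growth.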 Active and inactive are the calls of the source. No stated cut-off is given here; in the data, active = GI50 up to about 1.1 µM and inactive = higher.

Columns and labels:
Test in all cases: NCI tumour cell line growth inhibition, 48 h
DU-145 = test system: DU-145
TK-10 = test system: TK-10
HL-60 = test system: HL-60
SK-OV-3 = test system: SK-OV-3
CCRF-CEM = test system: CCRF-CEM
MDA-MB-435 = test system: MDA-MB-435
LOX IMVI = test system: LOX IMVI
ACHN = test system: ACHN
U-251 = test system: U-251
SW-620 = test system: SW-620
Hs-578T = test system: Hs-578T
A498 = test system: A498
HOP-62 = test system: HOP-62
IGROV-1 = test system: IGROV-1
RXF 393 = test system: RXF 393
M14 = test system: M14
786-0 = test system: 786-0
SF-539 = test system: SF-539
OVCAR-5 = test system: OVCAR-5

SMILES	GI50 (DU-145)	GI50 (TK-10)	GI50 (HL-60)	GI50 (SK-OV-3)	GI50 (CCRF-CEM)	GI50 (MDA-MB-435)	GI50 (LOX IMVI)	GI50 (ACHN)	GI50 (U-251)	GI50 (SW-620)	GI50 (Hs-578T)	GI50 (A498)	GI50 (HOP-62)	GI50 (IGROV-1)	GI50 (RXF 393)	GI50 (M14)	GI50 (786-0)	GI50 (SF-539)	GI50 (OVCAR-5)
Nc1ccc(-c2nc3ccccc3s2)cc1CO	> 94.8 µM (inactive)	> 100 µM (inactive)	39 µM (inactive)	> 100 µM (inactive)	> 51.2 µM (inactive)	> 87.5 µM (inactive)	84.3 µM (inactive)	13.5 µM (inactive)	> 76.4 µM (inactive)	> 100 µM (inactive)	> 83.6 µM (inactive)	< 0.01 µM (active)	31.5 µM (inactive)	> 68.5 µM (inactive)	> 100 µM (inactive)	64.6 µM (inactive)	> 100 µM (inactive)	–	–
O=C(CC1(O)CCCCC1)OC1CCCC1	> 100 µM (inactive)	> 100 µM (inactive)	–	> 100 µM (inactive)	–	> 100 µM (inactive)	> 100 µM (inactive)	> 100 µM (inactive)	> 100 µM (inactive)	–	> 100 µM (inactive)	> 100 µM (inactive)	> 100 µM (inactive)	> 100 µM (inactive)	> 100 µM (inactive)	> 100 µM (inactive)	> 100 µM (inactive)	> 100 µM (inactive)	> 100 µM (inactive)
O=C(N/N=C\c1ccc([N+](=O)[O-])cc1)c1ccccc1Nc1ccccc1C(=O)N/N=C/c1ccc([N+](=O)[O-])cc1	> 100 µM (inactive)	> 100 µM (inactive)	89.7 µM (inactive)	> 100 µM (inactive)	85.7 µM (inactive)	> 100 µM (inactive)	–	> 100 µM (inactive)	> 100 µM (inactive)	> 100 µM (inactive)	> 100 µM (inactive)	> 100 µM (inactive)	> 100 µM (inactive)	> 100 µM (inactive)	> 100 µM (inactive)	27.3 µM (inactive)	> 100 µM (inactive)	–	76.4 µM (inactive)
O=c1c2ccccc2nc2[nH][nH]c(=S)n12	> 100 µM (inactive)	> 100 µM (inactive)	> 100 µM (inactive)	> 100 µM (inactive)	> 100 µM (inactive)	> 100 µM (inactive)	> 100 µM (inactive)	> 100 µM (inactive)	> 100 µM (inactive)	> 100 µM (inactive)	43.3 µM (inactive)	> 100 µM (inactive)	> 100 µM (inactive)	> 100 µM (inactive)	–	> 100 µM (inactive)	> 100 µM (inactive)	> 100 µM (inactive)	> 100 µM (inactive)
O=C1C2=Cc3ccccc3CCN2c2ccccc21	> 75.3 µM (inactive)	> 100 µM (inactive)	18.9 µM (inactive)	–	13.6 µM (inactive)	28.7 µM (inactive)	17.3 µM (inactive)	17.3 µM (inactive)	> 31.6 µM (inactive)	20.4 µM (inactive)	41 µM (inactive)	16.3 µM (inactive)	> 63.8 µM (inactive)	30.2 µM (inactive)	> 10 µM (inactive)	16.1 µM (inactive)	19.6 µM (inactive)	16.4 µM (inactive)	61.4 µM (inactive)
CC(=O)ON(OC(C)=O)c1ccc(C)cc1	> 100 µM (inactive)	> 100 µM (inactive)	–	> 100 µM (inactive)	< 0.01 µM (active)	> 100 µM (inactive)	–	> 100 µM (inactive)	> 100 µM (inactive)	> 100 µM (inactive)	> 100 µM (inactive)	> 100 µM (inactive)	> 100 µM (inactive)	> 100 µM (inactive)	> 100 µM (inactive)	> 100 µM (inactive)	> 100 µM (inactive)	–	> 100 µM (inactive)
CSc1nc(Cl)c2c(n1)Sc1nc3cc4c(cc3n1C2O)OCO4 (configuration not stated)	0.318 µM (active)	1.65 µM (inactive)	–	1.72 µM (inactive)	0.269 µM (active)	0.232 µM (active)	0.206 µM (active)	0.946 µM (active)	0.791 µM (active)	0.33 µM (active)	1.05 µM (active)	3.44 µM (inactive)	0.701 µM (active)	0.392 µM (active)	1.96 µM (inactive)	0.333 µM (active)	0.321 µM (active)	0.126 µM (active)	0.92 µM (active)
CC(=O)OCC1OC(n2c(C)cc(C)c(C#N)c2=S)C(OC(C)=O)C(OC(C)=O)C1OC(C)=O (configuration not stated)	> 100 µM (inactive)	> 100 µM (inactive)	> 100 µM (inactive)	–	> 100 µM (inactive)	> 100 µM (inactive)	> 100 µM (inactive)	> 100 µM (inactive)	> 100 µM (inactive)	–	> 100 µM (inactive)	> 100 µM (inactive)	> 100 µM (inactive)	> 100 µM (inactive)	> 100 µM (inactive)	> 100 µM (inactive)	> 100 µM (inactive)	> 100 µM (inactive)	> 100 µM (inactive)
CC1C2CC(CC2=O)C1(C)C (configuration not stated)	> 100 µM (inactive)	> 100 µM (inactive)	> 100 µM (inactive)	> 100 µM (inactive)	> 100 µM (inactive)	> 100 µM (inactive)	–	> 100 µM (inactive)	> 100 µM (inactive)	> 100 µM (inactive)	> 100 µM (inactive)	> 100 µM (inactive)	> 100 µM (inactive)	> 100 µM (inactive)	> 100 µM (inactive)	> 100 µM (inactive)	> 100 µM (inactive)	> 100 µM (inactive)	> 100 µM (inactive)
FC(F)(F)c1cccnc1Sc1nc2ccccc2s1	> 100 µM (inactive)	> 100 µM (inactive)	–	–	> 100 µM (inactive)	> 100 µM (inactive)	–	> 100 µM (inactive)	> 100 µM (inactive)	> 100 µM (inactive)	45.7 µM (inactive)	> 100 µM (inactive)	57.8 µM (inactive)	42.4 µM (inactive)	> 100 µM (inactive)	37.6 µM (inactive)	> 100 µM (inactive)	> 100 µM (inactive)	34.1 µM (inactive)
CC(C)C(CC(=O)OCC(CO)OC(=O)CC(C(C)C)C(C)C)C(C)C (configuration not stated)	15.4 µM (inactive)	13.3 µM (inactive)	–	16.7 µM (inactive)	5.53 µM (inactive)	13.7 µM (inactive)	–	10.9 µM (inactive)	13.1 µM (inactive)	13.6 µM (inactive)	4.85 µM (inactive)	15.3 µM (inactive)	10.5 µM (inactive)	19.1 µM (inactive)	16.6 µM (inactive)	14.1 µM (inactive)	12.4 µM (inactive)	–	13 µM (inactive)
COC1OC(Cn2cc([N+](=O)[O-])nc2C)C(O)C(O)C1O (configuration not stated)	> 100 µM (inactive)	–	–	> 100 µM (inactive)	> 100 µM (inactive)	> 100 µM (inactive)	–	> 100 µM (inactive)	> 100 µM (inactive)	> 100 µM (inactive)	> 100 µM (inactive)	> 100 µM (inactive)	> 100 µM (inactive)	> 100 µM (inactive)	> 100 µM (inactive)	> 100 µM (inactive)	> 100 µM (inactive)	–	> 100 µM (inactive)
CC(=O)C1=C(c2ccccc2)N(C2OC(CO)C(O)C(O)C2O)C(S)=C(C#N)C1c1ccc(Cl)cc1 (configuration not stated)	44.8 µM (inactive)	52.7 µM (inactive)	42.4 µM (inactive)	–	34.8 µM (inactive)	23.6 µM (inactive)	18.5 µM (inactive)	29.7 µM (inactive)	17.9 µM (inactive)	8.53 µM (inactive)	25.8 µM (inactive)	38.6 µM (inactive)	30.2 µM (inactive)	39.7 µM (inactive)	28.6 µM (inactive)	21 µM (inactive)	27 µM (inactive)	18.2 µM (inactive)	62.2 µM (inactive)
CC1(CCCO)CCCCCC(C)(CCCO)C1=O (configuration not stated)	> 100 µM (inactive)	–	> 100 µM (inactive)	> 100 µM (inactive)	> 100 µM (inactive)	> 100 µM (inactive)	> 100 µM (inactive)	> 100 µM (inactive)	> 100 µM (inactive)	> 100 µM (inactive)	> 100 µM (inactive)	> 100 µM (inactive)	> 100 µM (inactive)	> 100 µM (inactive)	> 100 µM (inactive)	> 100 µM (inactive)	> 100 µM (inactive)	–	> 100 µM (inactive)
COc1ccc(/[N+]([O-])=C/c2ccccc2OC(=S)S)cc1	39.9 µM (inactive)	80.7 µM (inactive)	24.3 µM (inactive)	86.1 µM (inactive)	–	21.4 µM (inactive)	20.1 µM (inactive)	38.5 µM (inactive)	46.6 µM (inactive)	39.8 µM (inactive)	33.7 µM (inactive)	26.1 µM (inactive)	–	27.6 µM (inactive)	52 µM (inactive)	25.5 µM (inactive)	24.9 µM (inactive)	22.6 µM (inactive)	35.9 µM (inactive)
Cc1cccc2c1[C@]13OC(C)[C@]4(C)CC5OC(=O)[C@@]1(C)[C@@H]5[C@]34C(=O)O2 (some centres not stated)	> 100 µM (inactive)	> 100 µM (inactive)	> 100 µM (inactive)	> 100 µM (inactive)	> 100 µM (inactive)	> 100 µM (inactive)	> 100 µM (inactive)	> 100 µM (inactive)	> 100 µM (inactive)	> 100 µM (inactive)	> 100 µM (inactive)	> 100 µM (inactive)	> 100 µM (inactive)	> 100 µM (inactive)	–	> 100 µM (inactive)	> 100 µM (inactive)	> 100 µM (inactive)	> 100 µM (inactive)
